Residues, ends and D or L forms follow the SMILES beside them.
Key:
Type in all cases: in vitro ADME
[1] = molecular target: Proteinase K (Parengyodontium album, UniProt P06873); assay: Peptide conjugate digestion with Proteinase K; set-up: key to the marks not given beside the values; conditions: 37° C. for 1 hr
Protocol: (§1) Linear peptides (PK15 and CG4L1-PK15L1) were first treated with iodoacetamide prior to digestion studies. The peptides (ca 3-4 mg) were purified by HPLC (semi-prep Proteo column as described in general methods), and the HPLC fraction (ca 3 ml) was neutralised with an equal volume of 50 mM ammonium bicarbonate. […] The reaction mixture was concentrated (rotary evaporator) and re-purified by HPLC as above.
(§2) Peptides (linear and conjugates) were dissolved in water at a concentration of 1 mg/ml, giving an effective concentration of −0.5 mM stock solutions. 2 μl of peptide conjugates (˜30 μM in reactions depending on actual molecular weight) where dissolved in reaction buffer (see below) in a total reaction volume of 30 μl, followed by the protease, and samples were incubated at 37° C. for 1 hr. 10 μl aliquots were quenched into 20 μl of 10% dichloroacetic acid in MeCN/H2O (1:1) and stored at −20° C. for 30 minutes, centrifuged at 4° C. (13000 rpm) for 5 minutes and then spotted onto MALDI-TOF mass spectrometer plate for analysis.
(§3) All reactions at 37° C. Cathepsin G and kalikrein reactions were carried out in 10 mM Tris pH 7.4, 150 mM NaCl, 10 mM MgCl2, 1 mM CaCl2, 0.1% BSA, 0.01% Triton X100, 5% DMSO. Chymotrypsin reactions were carried out in 100 mM Tris pH 7.4, 10 mM CaCl2. Pronase and proteinase K reactions were carried out in 100 mM Tris pH 7.4, 0.5% SDS. Subtilisin reactions were carried out in 50 mM KH2PO4 pH 7.5. Trypsin reactions were carried out in 67 mM sodium phosphate pH 7.6. Reaction conditions with serum involve dissolving the peptide in 1×PBS (total volume 24 μl) and 6 μl of human serum added to the reaction.

[2] = Resistance to serum; conditions: 37° C., human serum in PBS; later times not yet tested
Protocol: as §2, §3

[3] = tested on: Subtilisin; assay: Peptide conjugate digestion with Subtilisin; conditions: 37° C. for 1 hr
Protocol: as §1, §2, §3

[4] = molecular target: T1, Cathepsin G (Homo sapiens, UniProt P08311); assay: Peptide conjugate digestion with Cathepsin G; set-up: key to the marks not given beside the values; conditions: 37° C. for 1 hr
T1 sequence (P08311 21-244): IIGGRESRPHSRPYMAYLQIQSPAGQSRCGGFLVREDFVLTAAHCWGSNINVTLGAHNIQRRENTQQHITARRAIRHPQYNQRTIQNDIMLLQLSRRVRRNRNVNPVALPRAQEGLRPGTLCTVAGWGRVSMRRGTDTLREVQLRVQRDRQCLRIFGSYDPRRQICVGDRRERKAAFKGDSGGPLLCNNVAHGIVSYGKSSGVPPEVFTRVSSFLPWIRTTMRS
Protocol: as §1, §2, §3

[5] = tested on: Pronase; assay: Peptide conjugate digestion with Pronase; set-up: key to the marks not given beside the values; conditions: 37° C. for 1 hr
Protocol: as §1, §2, §3

[6] = molecular target: Kalikrein (Homo sapiens, UniProt P03952); assay: Peptide conjugate digestion with Kalikrein; set-up: digestion with Kalikrein: key to the marks not given beside the values; conditions: for digestion with Kalikrein: 37° C. for 1 hr
Sequence of Kalikrein (P03952 20-638): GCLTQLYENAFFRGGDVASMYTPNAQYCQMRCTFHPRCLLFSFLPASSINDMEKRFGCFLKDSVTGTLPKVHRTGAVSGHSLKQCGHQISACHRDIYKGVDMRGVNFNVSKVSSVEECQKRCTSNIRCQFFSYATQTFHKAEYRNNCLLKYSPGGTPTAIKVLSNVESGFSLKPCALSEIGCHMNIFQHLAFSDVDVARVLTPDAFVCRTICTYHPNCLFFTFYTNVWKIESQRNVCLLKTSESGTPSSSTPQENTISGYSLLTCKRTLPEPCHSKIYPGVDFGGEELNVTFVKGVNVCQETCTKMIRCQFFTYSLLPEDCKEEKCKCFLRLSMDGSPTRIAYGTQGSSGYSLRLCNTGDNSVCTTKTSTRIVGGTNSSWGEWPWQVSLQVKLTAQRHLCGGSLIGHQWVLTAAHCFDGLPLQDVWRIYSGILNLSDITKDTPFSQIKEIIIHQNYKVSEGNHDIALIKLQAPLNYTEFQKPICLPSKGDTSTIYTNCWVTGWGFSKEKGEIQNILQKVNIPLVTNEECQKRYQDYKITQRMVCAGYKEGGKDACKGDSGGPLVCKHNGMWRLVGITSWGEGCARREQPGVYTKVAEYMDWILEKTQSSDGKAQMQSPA
Protocol: as §1, §2, §3

[7] = tested on: Trypsin; assay: Peptide conjugate digestion with Trypsin; conditions: 37° C. for 1 hr
Protocol: as §1, §2, §3

[8] = tested on: Chymotrypsin; assay: Peptide conjugate digestion with Chymotrypsin; conditions: 37° C. for 1 hr
Protocol: as §1, §2, §3

Sequence of Proteinase K (P06873 106-384): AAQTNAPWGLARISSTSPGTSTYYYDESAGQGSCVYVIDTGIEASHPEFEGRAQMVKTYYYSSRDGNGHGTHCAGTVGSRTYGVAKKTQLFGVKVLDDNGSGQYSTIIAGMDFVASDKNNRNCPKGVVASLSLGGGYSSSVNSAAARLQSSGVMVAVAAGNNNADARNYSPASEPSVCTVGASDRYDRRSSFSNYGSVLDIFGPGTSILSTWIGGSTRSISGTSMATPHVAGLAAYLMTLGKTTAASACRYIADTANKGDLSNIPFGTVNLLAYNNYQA

For `CC(C)C[C@@H]1NC(=O)[C@H](C)NC(=O)[C@H](CCC(=O)O)NC(=O)[C@H](CC(=O)O)NC(=O)[C@H](C)NC(=O)[C@@H]2CCCN2C(=O)[C@@H]2CSCc3cc(cc(c3)CSC[C@@H](C(=O)NCC(=O)O)NC1=O)CSC[C@H](NC(=O)[C@H](C)N)C(=O)N[C@@H](CO)C(=O)N[C@@H](CC(=O)O)C(=O)N[C@@H](CCCNC(=N)N)C(=O)N[C@@H](Cc1ccccc1)C(=O)N[C@@H](CCCNC(=N)N)C(=O)N[C@@H](CC(N)=O)C(=O)N2` [PK15L1-PK15L2 bicyclic, reference compound] (HELM PEPTIDE1{A.C.S.D.R.F.R.N.C.P.A.D.E.A.L.C.G}|CHEM1{[c1c(C[*:1])cc(C[*:3])cc1C[*:2]]}$PEPTIDE1,CHEM1,2:R3-1:R1|PEPTIDE1,CHEM1,9:R3-1:R2|PEPTIDE1,CHEM1,16:R3-1:R3$$$V2.0), the “digestion with Proteinase K” value ([1]; 0.01 μg enzyme per reaction) was “+++”, the “digestion with Proteinase K” value ([1]; 0.1 μg enzyme per reaction) was “+++” and the “digestion with Proteinase K” value ([1]; 1 μg enzyme per reaction) was “+++”. The “time for which proteolysis in serum is resisted” value [2] was “at least 48 hours”, the “digestion with Subtilisin” value ([3]; 0.009 μg enzyme per reaction) was “+++” and the “digestion with Subtilisin” value ([3]; 9 μg enzyme per reaction) was “−”. For the same compound, the “digestion with Cathepsin G” value ([4]; 0.01 μg enzyme per reaction) was “+++”, the “digestion with Cathepsin G” value ([4]; 0.1 μg enzyme per reaction) was “+++” and the “digestion with Pronase” value ([5]; 0.01 μg enzyme per reaction) was “+++”. For the same compound, the “digestion with Pronase” value ([5]; 0.1 μg enzyme per reaction) was “+++”, the “digestion with Kalikrein” value ([6]; 0.01 μg enzyme per reaction) was “+++” and the “digestion with Kalikrein” value ([6]; 0.1 μg enzyme per reaction) was “+++”. For the same compound, the “digestion with Kalikrein” value ([6]; 1 μg enzyme per reaction) was “+++”, the “factor by which the TBMB conjugate is more resistant than the linear peptide to attack by kallikrein” value ([6]; by comparing different concentrations of enzyme) was “about 100 fold” and the “digestion with Trypsin” value ([7]; 0.01 μg enzyme per reaction) was “+++”. For the same compound, the “digestion with Trypsin” value ([7]; 10 μg enzyme per reaction) was “−”, the “digestion with Chymotrypsin” value ([8]; 0.01 μg enzyme per reaction) was “+++” and the “digestion with Chymotrypsin” value ([8]; 0.1 μg enzyme per reaction) was “+++”. The “digestion with Chymotrypsin” value ([8]; 1 μg enzyme per reaction) was “+++”.
